The values that follow come from patent US4333873A, “Pharmacologically active peptides” (Eli Lilly and Company, priority 1981, dated 1982).

In this assay the test system is mouse. Description: mouse hot plate test (analgesic activity). The assay is classed as in vivo. The following applies: hot plate 52° C., 15 minutes after administration, latency to jump. The method, then: In this test, a mouse is placed inside an upright acrylic cylinder comprising, as its base, a hot plate surface which is maintained at 52° C. The mouse is given, orally or by subcutaneous injection, a predetermined amount of test compound dissolved or suspended in a suitable carrier, and, 15 minutes after administration of the test compound, the mouse is placed on the hot plate surface. The latency in seconds until the mouse jumps from the hot plate surface is measure. […] This must occur in a dose range which produces no motor incoordination or incapacitation. The following Table records the ED50 results obtained from this test.
(In general: In hot-plate and tail-flick tests a longer latency is read as antinociception.)

SMILES strings stand for the structures. Structures can show the parent of a compound that is named as a salt.

On to `C=CCN(C(=O)CNC(=O)[C@@H](C)NC(=O)[C@@H](N)Cc1ccc(O)cc1)[C@@H](Cc1ccccc1)C(N)=O` [Example 1, L-Tyrosyl-D-alanyl-glycyl-L-(N^α -allyl)phenylalanine Amide, Acetate Salt], for which the “Analgesic Activity, Hot Plate Test ED50, mg./kg. subcutaneous” value amounted to 0.01 mg/kg.

`C[C@@H](NC(=O)[C@@H](N)Cc1ccc(O)cc1)C(=O)NCC(=O)N(CC1CC1)[C@@H](Cc1ccccc1)C(N)=O` [Example 2, L-Tyrosyl-D-alanyl-glycyl-L-(N^α -cyclopropylmethyl)phenylalanine Amide, Acetate Salt]: the “Analgesic Activity, Hot Plate Test ED50, mg./kg. subcutaneous” value was found to be 0.012 mg/kg.
